Data reported in patent US11432549B2, “Carbamoyl triazolinone based herbicide combinations and method of use” (Arysta LifeScience Corporation, priority 2009, dated 2022).

How the values were obtained:
[1] = system: Crabgrass sp.; experiment: Ex 5/7 greenhouse spray, bleaching/injury/density ratings; type: in vivo
Procedure: Containers were watered as needed based on species and water usage. The greenhouse was heated to keep temperatures above 50° F. (10° C.) and ventilated as needed to keep temperatures below 100° F. (38° C.). Typical daytime temperatures in the greenhouse were 80-90° F. (27-32° C.) and nighttime temperatures were between 50-60° F. (10-16° C.). The soil employed was Promix BX potting soil. Overall moisture conditions were normal and the closest weather station was on-site. Conditions and equipment employed in this Example are tabulated below in Tables 5-1 and 5-2.
All containers were moved outdoors from the greenhouse and arranged in blocks by treatment for the herbicide applications. A single spray application was applied to each block containing four repetitions of each species for each treatment. Plants were then immediately returned to the greenhouse and irrigated with approximately ¼″ water 1-3 hrs after treatment with a hose end sprayer. Only the Poa plants were trimmed with scissors two days prior to treatment at a height of approximately 3 inches.
Transplanted tillering Kentucky Bluegrass was 5 to 6 months old, transplanted Poa annua was 5 to 6 months old. Tall fescue was seeded into the crabgrass pots. St. Augustine plants (Floratam and Saphire) were shipped from Port St. Lucie, Fla. Only two replicates of Saphire St. Augustine grass were used due to plant availability.
Referring to FIGS. 2A-B, 3A-C, 4A-C, and 5A-D, all ratings of injury or bleaching are based on a scale from 1 to 9. […] Any bleaching measurement 4 and above was considered unacceptable for desirable turf species. In injury measurements, 1 indicates no injury while 9 indicates a dead plant. Any injury measurement 4 and above was considered unacceptable for desirable turf species). Density correlates with percent cover where 1 indicates no grass while 9 indicates a full pot.
Replications employed include 4, Untreated treatments: 1, Design: Randomized Complete Block, Treatment units: US standard, Treated plot size Width: 4 feet, Treated plot size Length: 4 feet, Application volume: 50 gal/ac, Mix size: 0.5562 liters, Mix overage: 100%, Format definitions: G-All7.DEF, G-All7.FRM.
In evaluating synergism, the data from Example 5 above were converted to % of control. This was done based on the data provided on a 1-9 scale detailed in Example 5. Expected values were computed from the % of control data by the formula for expected control=[…], where A is the % of control value for herbicide A alone and B is the % of control value for herbicide B alone.

[2] = system: Euphorbia heterophylla (EPHHL); experiment: Ex 4 pre-emergence, visual % damage; type: in vivo
Procedure: DINAMIC® (amicarbazone) in combination of various herbicides listed in Table 4-1 were tested for herbicidal activity.
The herbicidal effect was observed by comparing the extent of Euphorbia heterophylla (EPHHL) treated with the compounds against that occurring in similar non-treated control. Herbicidal effect was visually assessed and recorded at 14, 23, 36, 49, 65 and 77 days after treatment (DAT). Damage by the herbicidal compositions was evaluated with reference to a scale of 0% to 100% in comparison with untreated control. 0% means no damage and 100% means complete destruction of the plants.
The theoretical herbicidal effect index were calculated based on Colby and the values were indicated in bracket ( ) in Table 4-2. Both of the herbicidal mixtures (amicarbazone+Karmex) and (amicarbazone+Sencor) exert a greater herbicidal action than expected according to Colby on the basis of the observed effects of the individual components when used alone. […] The underlined values in the table indicate that the observed weed killing is greater than calculated from the Colby formula and therefore indicates a synergistic weed killing effect or activity.

[3] = rating 1, 0.022 lbs ai/A (0.5 oz/A)
[4] = rating 1, 0.13 lbs ai/A (3 oz/A)
[5] = rating 2, 0.022 lbs ai/A (0.5 oz/A)
[6] = rating 2, 0.13 lbs ai/A (3 oz/A)
[7] = rating 3, 0.022 lbs ai/A (0.5 oz/A)
[8] = rating 3, 0.13 lbs ai/A (3 oz/A)
[9] = rating 4, 0.022 lbs ai/A (0.5 oz/A)
[10] = rating 4, 0.13 lbs ai/A (3 oz/A)
[11] = rating 5, 0.022 lbs ai/A (0.5 oz/A)
[12] = rating 5, 0.13 lbs ai/A (3 oz/A)
[13] = rating 6, 0.022 lbs ai/A (0.5 oz/A)
[14] = rating 6, 0.13 lbs ai/A (3 oz/A)

CC(C)c1nn(C(=O)NC(C)(C)C)c(=O)n1N [Amicarbazone, 4-amino-5-isopropyl-2-(tert-butyl-aminocarbonyl)-2,4-dihydro-3H-1,2,4-triazol-3-one]
Crabgrass bleaching [1, 3]: 97
Crabgrass cover [1, 3]: 88
Crabgrass injury [1, 3]: 94
Crabgrass bleaching [1, 4]: 100
Crabgrass cover [1, 4]: 67
Crabgrass injury [1, 4]: 100
Crabgrass bleaching [1, 5]: 100
Crabgrass cover [1, 5]: 94
Crabgrass injury [1, 5]: 100
Crabgrass bleaching [1, 6]: 100
Crabgrass cover [1, 6]: 67
Crabgrass injury [1, 6]: 100
Crabgrass bleaching [1, 7]: 100
Crabgrass cover [1, 7]: 100
Crabgrass injury [1, 7]: 100
Crabgrass bleaching [1, 8]: 100
Crabgrass cover [1, 8]: 72
Crabgrass injury [1, 8]: 100
Crabgrass bleaching [1, 9]: 100
Crabgrass injury [1, 9]: 97
Crabgrass bleaching [1, 10]: 100
Crabgrass injury [1, 10]: 94
Crabgrass bleaching [1, 11]: 97
Crabgrass injury [1, 11]: 97
Crabgrass bleaching [1, 12]: 100
Crabgrass injury [1, 12]: 94
Crabgrass bleaching [1, 13]: 97
Crabgrass injury [1, 13]: 94
Crabgrass bleaching [1, 14]: 100
Crabgrass injury [1, 14]: 94
Crabgrass bleaching ([1]; rating 7, 0.022 lbs ai/A (0.5 oz/A)): 100
Crabgrass bleaching ([1]; rating 7, 0.13 lbs ai/A (3 oz/A)): 100
Crabgrass bleaching ([1]; rating 8, 0.022 lbs ai/A (0.5 oz/A)): 100
Crabgrass bleaching ([1]; rating 8, 0.13 lbs ai/A (3 oz/A)): 100
percentage control ([2]; 14 DAT, kg/ha or L/ha: Amicarbazone 1.00, Gesapax 3.00, Karmex 3.00, Provence 0.15, Sencor 2.00, alone or Amicarbazone + partner): 96%
percentage control ([2]; 14 DAT, kg/ha or L/ha: Amicarbazone 1.50, Gesapax 5.00, Karmex 5.00, Provence 0.20, Sencor 3.50, alone): 98%
percentage control ([2]; 23 DAT, kg/ha or L/ha: Amicarbazone 1.00, Gesapax 3.00, Karmex 3.00, Provence 0.15, Sencor 2.00, alone or Amicarbazone + partner): 96%
percentage control ([2]; 23 DAT, kg/ha or L/ha: Amicarbazone 1.50, Gesapax 5.00, Karmex 5.00, Provence 0.20, Sencor 3.50, alone): 98%
percentage control ([2]; 36 DAT, kg/ha or L/ha: Amicarbazone 1.00, Gesapax 3.00, Karmex 3.00, Provence 0.15, Sencor 2.00, alone or Amicarbazone + partner): 96%
percentage control ([2]; 36 DAT, kg/ha or L/ha: Amicarbazone 1.50, Gesapax 5.00, Karmex 5.00, Provence 0.20, Sencor 3.50, alone): 96%
percentage control ([2]; 49 DAT, kg/ha or L/ha: Amicarbazone 1.00, Gesapax 3.00, Karmex 3.00, Provence 0.15, Sencor 2.00, alone or Amicarbazone + partner): 79%
percentage control ([2]; 49 DAT, kg/ha or L/ha: Amicarbazone 1.50, Gesapax 5.00, Karmex 5.00, Provence 0.20, Sencor 3.50, alone): 96%
percentage control ([2]; 65 DAT, kg/ha or L/ha: Amicarbazone 1.00, Gesapax 3.00, Karmex 3.00, Provence 0.15, Sencor 2.00, alone or Amicarbazone + partner): 79%
percentage control ([2]; 65 DAT, kg/ha or L/ha: Amicarbazone 1.50, Gesapax 5.00, Karmex 5.00, Provence 0.20, Sencor 3.50, alone): 96%
percentage control ([2]; 77 DAT, kg/ha or L/ha: Amicarbazone 1.00, Gesapax 3.00, Karmex 3.00, Provence 0.15, Sencor 2.00, alone or Amicarbazone + partner): 75%
percentage control ([2]; 77 DAT, kg/ha or L/ha: Amicarbazone 1.50, Gesapax 5.00, Karmex 5.00, Provence 0.20, Sencor 3.50, alone): 90%
